These results are taken from patent US6822146B2, “Sulfonylurea-tolerant sunflower line M7” (priority 2000, dated 2004).

The structures appear in SMILES notation. Like-named read-outs stand apart in the source and are kept apart here.

The subject of data set [1] is acetolactate synthase (ALS) from M2E24. As to the kind of experiment: ALS activity remaining, M2E24 extract. Format: biochemical, sunflower. As to conditions: mutant line selected with rimsulfuron, in the presence of rimsulfuron.
In the next data set the test system is H89A × M4M11. Format: in vivo, sunflower. As to conditions: variety G. From the text:
(§1) To generate the hybrids C, D and E, the fourth generation self-pollinated maintainer mutant lines M4M12, M4M11 and M4M7 were chemically sterilized by applying at the bud “star” flower stage a small amount of gibberellic acid solution to sterilize the pollen according to the general method described in Sunflower Science Technology, J. F. Carter ed. (Number 19 in the series “Agronomy”) pp. 339-386. This treatment enables maintainer plants to behave as CMS inbred lines and allows the production of heterozygous resistant hybrids, with the herbicide resistant source coming from the female side. Such crosses allowed evaluating the sexual effect of the mutation source when introduced on the female side of a cross as described in crosses C, D and E versus the male side of a cross as described in crosses F, G and H. Labels I, J and K identify third generation CMS mutant lines crossed with fourth generation maintainer lines to maintain the highly heritable mutant trait in a male sterile homozygous resistant environment. One skilled in sunflower breeding art understands the meaning of such crosses.
(§2) A rating of 0% phytotoxicity means no crop injury.

For the next data set, the system named is H89A × M4M12. Format: in vivo, sunflower. As to conditions: variety F.
Text: as §1, §2

In a further data set the test system is H89A × M4M7. The class given is in vivo, sunflower. As to conditions: variety H.
Text: as §1, §2

For data set [2], the system named is Hybrid control: H89A × RHA274. The class given is in vivo, sunflower. As to conditions: variety A.
Text: as §1, §2

The test system of data set [3] is Inbred line control: H89A. The class given is in vivo, sunflower. As to conditions: variety B.
Text: as §1, §2

Data set [4] deals with Homozygous resistant inbred lines, BC3-M4M12 (I), BC3-M4M11 (J) and BC3-M4M7 (K). The data set can be described thus: Test A summary, homozygous resistant inbred lines. As to conditions: in vivo. As to the method:
In a small field trial, the sunflower varieties described in Table 4 were sprayed post-emergence with a variety of sulfonylurea herbicide treatments.
Broadcast post-emergence applications of formulated sulfonylurea herbicides were performed at the 6-leaf development stage using four randomly distributed replications. Application rates were chosen to match the usual use rates of these herbicides in the crops they are registered in Europe. All herbicides except for metsulfuron-methyl were sprayed in combination with Citowet® non-ionic ethoxylated alcohol at 0.25% volume of formulated product per volume of water applied per hectare.
The evaluation of the maximum (i.e. peak) injury to sunflower varieties by sulfonylurea herbicides was measured by visual ratings, which are listed in Table 5. A rating of 0% phytotoxicity means no crop injury. […] A rating of 100% means the complete destruction of all plants.

The subject of the next data set is M5M7. As to the kind of experiment: Test B greenhouse phytotoxicity, M5M7. Format: in vivo, sunflower. As to conditions: in vivo. An outline of the steps:
(§3)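 Formulated ALS-inhibiting herbicides sprayed post-emergence at the 4-leaf stage on homozygous mutant sunflower inbreds (M5 maintainers and BC4 male-sterile back-crosses) in the greenhouse, at rates commonly used in registered crops. Two replicates; crop injury rated as % phytotoxicity, 0% meaning no injury.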

The test system of another data set is M5M11. The data set can be described thus: Test B greenhouse phytotoxicity, M5M11. Format: in vivo, sunflower. As to conditions: in vivo. The method, boiled down:
as §3

The test system of the next data set is M5M12. The data set can be described thus: Test B greenhouse phytotoxicity, M5M12. As to conditions: in vivo. The class given is in vivo, sunflower. An outline of the steps: as §3
The next data set deals with BC4-M5M7. As to the kind of experiment: Test B greenhouse phytotoxicity, BC4-M5M7. Format: in vivo, sunflower. As to conditions: in vivo. The method, boiled down:
as §3

In the next data set the test system is BC4-M5M11. As to the kind of experiment: Test B greenhouse phytotoxicity, BC4-M5M11. As to conditions: in vivo. The class given is in vivo, sunflower. An outline of the steps:
as §3

In a further data set the test system is BC4-M5M12. As to the kind of experiment: Test B greenhouse phytotoxicity, BC4-M5M12. Format: in vivo, sunflower. As to conditions: in vivo. The method, boiled down:
as §3

The test system of data set [5] is homozygous progeny of the three mutant sources. Format: in vivo, sunflower. As to conditions: Test B application rates, post-emergence. The method, boiled down:
as §3

A further data set concerns 'M11'. The data set can be described thus: Tolerance of M11 to rimsulfuron. As to conditions: in vivo.
The subject of a further data set is Orobanche cumana. As to the kind of experiment: Test E control of Orobanche cumana in resistant sunflower hybrid. Format: in vivo. On the procedure:
The effect of the various treatments was evaluated 35 days after sowing. The sunflower roots were cleaned by washing in water, and the presence of Orobanche nodules was determined visually and by weighing root wet mass in comparison to check plants free of Orobanche infestation. […] The nodules caused by Orobanche increased root weight, and a correlation (r=0.7) was found between visual scores and weight measurements. Thus the weighing technique could be used to corroborate visual efficacy scorings. Orobanche emergence was also scored but found to be less useful to evaluate treatment efficiency at the evaluation timing of this test.
(§4) Based on the results from Test D, a modified protocol was developed to include three timings of post-emergence treatment. The hybrid BC4-M5M12 (female parent)×PHA155 restorer line (male parent) described in Test C was used in this test. Various herbicide programs were tested using three replications. […] Seed coatings of these formulated herbicides were applied to 6 kg of seeds in such amount that considering the distribution of the coated seeds in each pot, the herbicide active ingredient (a.i.) application rates per hectare were as indicated.
(§5) The treatments were applied similar to the methods described for Test D. Pre-emergence applications were broadcast only, not soil incorporated. For pre-emergence application, the pots were sprayed using the high rates of the herbicides two days after sowing the sunflower seeds. Post-emergence treatments were applied at the 4-6 leaf stage of sunflower (corresponding to early stage of Orobanche attachment; identified as “T1”), the 6-8 leaf stage of sunflower (corresponding to the mid stage of Orobanche attachment; nodules <5 mm diameter; identified as “T2”) and 8-12 leaf stage of sunflower (corresponding to late stage of Orobanche attachment; identified as “T3”). The mid-stage applications included the high as well as low application rates of each herbicide.
(§6) For comparison were also included in this test other acetolactate synthase-inhibiting herbicides reported in the literature as giving good weed control of Orobanche (L. García-Torres et al., Weed Research 1994, 34, 395-402; L. García-Torres et al., Weed Technology 1995, 9, 819-824; J. Hershenhorn et al., Weed Technology 1998, 12, 108-114).

Data set [6] relates to BC4-M5M12 × PHA155 hybrid. As to the kind of experiment: Test E injury to sunflower hybrid. Format: in vivo. As to conditions: in vivo. As to the method:
as §4, §5, §6

The subject of another data set is O. cernua. As to conditions: preemergence application of a low dose (2 to 6 g/ha), with sunflower tolerance; cited from earlier work.
Data set [7] concerns ALS enzymes of the mutant lines selected with thifensulfuron-methyl. As to the kind of experiment: ALS activity of mutant lines relative to wild-type H89B. As to conditions: in the presence of thifensulfuron-methyl. The class given is biochemical, sunflower.
The subject of data set [8] is H89A × RHA274 (sulfonylurea-susceptible hybrid). The data set can be described thus: Test G control of volunteer sunflower, H89A × RHA274. As to conditions: rated 4 weeks after application, scale 0-100. Format: in vivo.
For another data set, the system named is BC2-M3M11. As to the kind of experiment: Test G control of volunteer sunflower, BC2-M3M11. The class given is in vivo. As to conditions: rated 4 weeks after application, scale 0-100.
Another data set concerns BC2-M3M12. As to the kind of experiment: Test G control of volunteer sunflower, BC2-M3M12. The class given is in vivo. As to conditions: rated 4 weeks after application, scale 0-100.
In data set [9] the test system is mutants originating from M11 and M12. As to conditions: tribenuron-methyl up to 60 g a.i./ha; others at Test G rates. From the text:
This test involved sulfonylurea-resistant sunflower progeny BC2-M3M11 and BC2-M3M12, derived from M11 and M12, respectively. Also, a sulfonylurea-susceptible hybrid, H89A×RHA274, was included for comparison. Plants were sprayed with formulated herbicides at the 4-leaf stage. The efficacy of the treatments on the sunflowers was visually rated 4 weeks after application, using a scale where 0 means no control of the sunflowers, 85 means sufficient efficacy level to stop plants from flowering and propagating, and 100 means a complete destruction of the mutants.
Weed control in sugar beet requires 2-3 herbicide applications per season to efficiently control weeds in this slow growing crop.

In the case of `CCS(=O)(=O)c1cccnc1S(=O)(=O)NC(=O)Nc1nc(OC)cc(OC)n1` [Rimsulfuron, rimsulfuron], the “ALS activity retained relative to wild-type ALS from H89B” value in data set [1] is 4-6 times. Moreover, the “Maximum Phytotoxicity” value with H89A × M4M11 (15 g a.i./ha post-emergence) is listed as 98%; in the data set with H89A × M4M11 (30 g a.i./ha post-emergence), 100%; with H89A × M4M12 (15 g a.i./ha post-emergence), 98%; in the data set on H89A × M4M12 (30 g a.i./ha post-emergence), 100%; with H89A × M4M7 (15 g a.i./ha post-emergence), 96%; in the data set with H89A × M4M7 (30 g a.i./ha post-emergence), 100%. The “Maximum Phytotoxicity” value in [2] (15 g a.i./ha post-emergence) came to 100%; in data set [2] (30 g a.i./ha post-emergence) it was 100%; in [3] (15 g a.i./ha post-emergence), 100%; in [3] (30 g a.i./ha post-emergence), 100%; in the data set with M5M7 it was 52.5%; in the data set with M5M11, 65%. The “Maximum Phytotoxicity” value in the data set with M5M12 is 55%; in the data set with BC4-M5M7 it was 45%; in the data set on BC4-M5M11 it was 47.5%; in the data set on BC4-M5M12, 65%. Besides, the “tolerance of homozygous resistant inbred lines I, J, K” value in [4] was “as susceptible as the standards”. For the same compound, the “tolerance of the mutants” value in data set [5] is listed as “somewhat sensitive”. In addition, the “tolerance of M11” value in the data set with 'M11' is “not tolerant”.

`COc1nc(C)nc(NC(=O)NS(=O)(=O)c2ccccc2Cl)n1` [Chlorsulfuron, chlorsulfuron]: the “Maximum Phytotoxicity” value in the data set with M5M7 was 47.5%; in the data set with M5M11, 50%; with M5M12 it was 45%; in the data set with BC4-M5M7, 45%; with BC4-M5M11, 50%; in the data set with BC4-M5M12, 45%. Besides, the “tolerance of the mutants” value in [5] is given as “somewhat sensitive”. The “relative efficacy in controlling Orobanche” value in the data set with Orobanche cumana (Test E rates, metsulfuron-methyl compared with tribenuron-methyl) was “less efficacious in controlling Orobanche”. In addition, the Control in the data set on Orobanche cumana (pre-emergence 2 g a.i./ha) is 13%; with Orobanche cumana (pre-emergence 10 g a.i./ha), 58%. Further, the Injury in data set [6] is 0%. Moreover, the “control of O. cernua” value with O. cernua is on record as 75-85%.

For the compound `COC(=O)c1sccc1S(=O)(=O)NC(=O)Nc1nc(C)nc(OC)n1` [Thifensulfuron-methyl, thifensulfuron-methyl], the “ALS activity retained relative to wild-type ALS from H89B” value in data set [7] is 2-6 times. Further, the “Maximum Phytotoxicity” value stood at 81% with H89A × M4M11 (35 g a.i./ha post-emergence); 90% in the data set on H89A × M4M11 (70 g a.i./ha post-emergence); 78% in the data set with H89A × M4M12 (35 g a.i./ha post-emergence); 89% in the data set on H89A × M4M12 (70 g a.i./ha post-emergence); 80% in the data set on H89A × M4M7 (35 g a.i./ha post-emergence); 90% in the data set with H89A × M4M7 (70 g a.i./ha post-emergence). For the same compound, the “Maximum Phytotoxicity” value came to 100% in data set [2] (35 g a.i./ha post-emergence), 99% in data set [2] (70 g a.i./ha post-emergence), 100% in data set [3] (35 g a.i./ha post-emergence) and 100% in [3] (70 g a.i./ha post-emergence). Further, in data set [4], the “tolerance of homozygous resistant inbred lines I, J, K” value is reported as “less susceptible than the standards”. In [4], the “tolerance of homozygous resistant lines compared with heterozygous hybrids” value is recorded as “the homozygous resistant lines were more tolerant”. The “Efficacy on H89A × RHA274” value in data set [8] (10 g a.i./ha, 4-leaf stage) stood at 100; in [8] (20 g a.i./ha), 100; in data set [8] (40 g a.i./ha), 100; in data set [8] (60 g a.i./ha) it was 100. In addition, the “Efficacy on BC2-M3M11” value in the data set on BC2-M3M11 (10 g a.i./ha) stood at 2; in the data set on BC2-M3M11 (20 g a.i./ha) it was 17; with BC2-M3M11 (40 g a.i./ha) it was 50; in the data set with BC2-M3M11 (60 g a.i./ha), 74. In addition, the “Efficacy on BC2-M3M12” value in the data set with BC2-M3M12 (10 g a.i./ha) amounted to 10; in the data set with BC2-M3M12 (20 g a.i./ha), 16; in the data set on BC2-M3M12 (40 g a.i./ha), 32; in the data set with BC2-M3M12 (60 g a.i./ha), 58. In addition, the “resistance/tolerance of the mutants” value in [9] is recorded as “to a lesser extent than with tribenuron-methyl”.
